Laboratory results from PubChem BioAssay (NCI).
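Values below derive from 48-hour exposures of cells grown in 96-well plates, with endpoints linearly interpolated between the two concentrations bracketing the appropriate inhibition level. At the TGI there is no net growth.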

Tests used:
Assay in all cases: DTP human tumour cell line panel, 48 h
[1] = tested on: OVCAR-4 ovarian
[2] = tested on: IGROV1 ovarian
[3] = tested on: SF-539 CNS
[4] = tested on: U251 CNS
[5] = tested on: A549 NSCLC
[6] = tested on: 786-0 renal
[7] = tested on: HS 578T breast
[8] = tested on: MDA-MB-231 breast
[9] = tested on: EKVX NSCLC
[10] = tested on: OVCAR-3 ovarian
[11] = tested on: NCI-H23 lung
[12] = tested on: SF-295 CNS
[13] = tested on: HCT-116 colon
[14] = tested on: CCRF-CEM leukemia
[15] = tested on: UO-31 renal
[16] = tested on: MOLT-4 leukemia
[17] = tested on: MDA-N
[18] = tested on: HOP-62 NSCLC
[19] = tested on: MALME-3M melanoma
[20] = tested on: ACHN renal
[21] = tested on: NCI-H226 lung
[22] = tested on: RPMI-8226 leukemia
[23] = tested on: OVCAR-8 ovarian
[24] = tested on: PC-3 prostate
[25] = tested on: TK-10 renal
[26] = tested on: M14 melanoma
[27] = tested on: HL-60(TB) leukemia
[28] = tested on: SNB-19 CNS
[29] = tested on: NCI/ADR-RES ovarian
[30] = tested on: MDA-MB-435
[31] = tested on: NCI-H522 lung
[32] = tested on: SK-MEL-28 melanoma
[33] = tested on: SR leukemia
[34] = tested on: NCI-H460 lung
[35] = tested on: SK-MEL-5 melanoma
[36] = tested on: HT29 colon
[37] = tested on: A498 renal
[38] = tested on: UACC-257 melanoma
[39] = tested on: SW-620 colon
[40] = tested on: BT-549 breast
[41] = tested on: K-562 leukemia
[42] = tested on: MCF7 breast
[43] = tested on: COLO 205 colon
[44] = tested on: HOP-92 NSCLC
[45] = tested on: DU-145 prostate
[46] = tested on: LOX IMVI melanoma
[47] = tested on: SN12C renal
[48] = tested on: HCT-15 colon
[49] = tested on: KM12 colon
[50] = tested on: CAKI-1 renal
[51] = tested on: SK-MEL-2 melanoma
[52] = tested on: HCC-2998 colon
[53] = tested on: SF-268 CNS
[54] = tested on: RXF 393 renal
[55] = tested on: UACC-62 melanoma
[56] = tested on: OVCAR-5 ovarian

Work on `Cc1cccc2oc3c(CC(=O)O)cccc3c(=O)c12` yielded a TGI [1] of over 100 µM, a TGI [2] of over 100 µM and a TGI [3] of over 100 µM. The TGI [4] was over 100 µM, the TGI [5] was over 100 µM and the TGI [6] was over 100 µM. For the same compound, the TGI [7] was over 100 µM, the TGI [8] was over 100 µM and the TGI [9] was over 100 µM. It also gave a TGI [10] of over 100 µM, a TGI [11] of over 100 µM and a TGI [12] of over 100 µM. For the same compound, the TGI [13] was over 100 µM, the TGI [14] was over 100 µM and the TGI [15] was over 100 µM. For the same compound, the TGI [16] was over 100 µM, the TGI [17] was over 100 µM and the TGI [18] was over 100 µM. The TGI [19] was over 100 µM, the TGI [20] was over 100 µM and the TGI [21] was over 100 µM. For the same compound, the TGI [22] was over 100 µM, the TGI [23] was over 100 µM and the TGI [24] was over 100 µM. It also gave a TGI [25] of over 100 µM, a TGI [26] of over 100 µM and a TGI [27] of over 100 µM. It also gave a TGI [28] of over 100 µM, a TGI [29] of over 100 µM and a TGI [30] of over 100 µM. The TGI [31] was over 100 µM, the TGI [32] was over 100 µM and the TGI [33] was over 100 µM. It also gave a TGI [34] of over 100 µM, a TGI [35] of over 100 µM and a TGI [36] of over 100 µM. For the same compound, the TGI [37] was over 100 µM, the TGI [38] was over 100 µM and the TGI [39] was over 100 µM. It also gave a TGI [40] of over 100 µM, a TGI [41] of over 100 µM and a TGI [42] of over 100 µM. For the same compound, the TGI [43] was over 100 µM, the TGI [44] was over 100 µM and the TGI [45] was over 100 µM. For the same compound, the TGI [46] was over 100 µM, the TGI [47] was over 100 µM and the TGI [48] was over 100 µM. It also gave a TGI [49] of over 100 µM, a TGI [50] of over 100 µM and a TGI [51] of 17.4 µM. It also gave a TGI [52] of 40.9 µM and a TGI [53] of over 100 µM.
`COc1cc(NC(C)c2ccc3c(c2)OCCO3)cc(OC)c1OC` (stereo not drawn) gave a TGI [1] of over 100 µM, a TGI [2] of over 100 µM and a TGI [3] of 60.4 µM. The TGI [4] was 94.1 µM, the TGI [54] was over 100 µM and the TGI [5] was over 100 µM. It also gave a TGI [6] of over 100 µM, a TGI [7] of 52.1 µM and a TGI [55] of over 100 µM. The TGI [8] was over 100 µM, the TGI [9] was over 100 µM and the TGI [10] was over 100 µM. It also gave a TGI [11] of 64.7 µM, a TGI [12] of over 100 µM and a TGI [13] of over 100 µM. The TGI [15] was over 100 µM, the TGI [16] was over 100 µM and the TGI [17] was 30.2 µM. It also gave a TGI [18] of over 100 µM, a TGI [19] of 67.8 µM and a TGI [20] of over 100 µM. The TGI [21] was 75.6 µM, the TGI [22] was 84.6 µM and the TGI [23] was over 100 µM. The TGI [24] was over 100 µM, the TGI [25] was over 100 µM and the TGI [26] was over 100 µM. It also gave a TGI [27] of 48.6 µM, a TGI [28] of over 100 µM and a TGI [29] of 91.4 µM. For the same compound, the TGI [30] was 32 µM, the TGI [31] was 48.9 µM and the TGI [32] was over 100 µM. For the same compound, the TGI [33] was over 100 µM, the TGI [34] was over 100 µM and the TGI [35] was 76.3 µM. For the same compound, the TGI [36] was over 100 µM, the TGI [37] was over 100 µM and the TGI [38] was over 100 µM. The TGI [39] was over 100 µM, the TGI [40] was over 100 µM and the TGI [41] was over 100 µM. For the same compound, the TGI [42] was over 100 µM, the TGI [43] was 71.8 µM and the TGI [44] was over 100 µM. It also gave a TGI [45] of over 100 µM, a TGI [46] of over 100 µM and a TGI [47] of over 100 µM. The TGI [56] was over 100 µM, the TGI [48] was over 100 µM and the TGI [49] was over 100 µM. The TGI [50] was over 100 µM, the TGI [51] was 79.8 µM and the TGI [52] was over 100 µM. It also gave a TGI [53] of over 100 µM.
